Measured values as given in the NIST ThermoML archive (doi:10.1016/j.fluid.2007.03.013).
Numbers after ± are expanded uncertainties.

Test: refractive index (Na D-line) (dimensionless)
Details: 293.1 K; 101.33 kPa; Liquid; Standard Abbe refractometry

| refractive index | Compound |
| --- | --- |
| 1.484 ± 0.0007 | O=CN1CCOCC1 [N-formylmorpholine] |
| 1.423 ± 0.0007 | CC1CCCCC1 [methylcyclohexane] |
